In PubChem BioAssay (NCI):
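Method: 48-hour compound exposure of cells in 96-well plates, five concentrations, linear interpolation of endpoints. At the GI50, growth is halved. TGI is the concentration that stops growth completely.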

Tests used:
Assay in all cases: NCI-60 cell line screen, 48 h
HS 578T breast = system: HS 578T breast
SK-MEL-28 melanoma = system: SK-MEL-28 melanoma
T-47D breast = system: T-47D breast
HCT-116 colon = system: HCT-116 colon
DU-145 prostate = system: DU-145 prostate
OVCAR-5 ovarian = system: OVCAR-5 ovarian
NCI-H522 lung = system: NCI-H522 lung
A498 renal = system: A498 renal
K-562 leukemia = system: K-562 leukemia
SNB-19 CNS = system: SNB-19 CNS
CAKI-1 renal = system: CAKI-1 renal
MOLT-4 leukemia = system: MOLT-4 leukemia
NCI-H226 lung = system: NCI-H226 lung
UO-31 renal = system: UO-31 renal
HCT-15 colon = system: HCT-15 colon
MDA-MB-231 breast = system: MDA-MB-231 breast
COLO 205 colon = system: COLO 205 colon
SK-OV-3 ovarian = system: SK-OV-3 ovarian
UACC-62 melanoma = system: UACC-62 melanoma
OVCAR-3 ovarian = system: OVCAR-3 ovarian
BT-549 breast = system: BT-549 breast
MCF7 breast = system: MCF7 breast
M14 melanoma = system: M14 melanoma
OVCAR-8 ovarian = system: OVCAR-8 ovarian
NCI/ADR-RES ovarian = system: NCI/ADR-RES ovarian
UACC-257 melanoma = system: UACC-257 melanoma
SF-539 CNS = system: SF-539 CNS
786-0 renal = system: 786-0 renal
HT29 colon = system: HT29 colon
MALME-3M melanoma = system: MALME-3M melanoma
SF-295 CNS = system: SF-295 CNS
NCI-H23 lung = system: NCI-H23 lung
SF-268 CNS = system: SF-268 CNS
SK-MEL-5 melanoma = system: SK-MEL-5 melanoma
SK-MEL-2 melanoma = system: SK-MEL-2 melanoma
RPMI-8226 leukemia = system: RPMI-8226 leukemia
SW-620 colon = system: SW-620 colon
IGROV1 ovarian = system: IGROV1 ovarian
EKVX NSCLC = system: EKVX NSCLC
HOP-62 NSCLC = system: HOP-62 NSCLC
SNB-75 CNS = system: SNB-75 CNS
TK-10 renal = system: TK-10 renal
KM12 colon = system: KM12 colon
ACHN renal = system: ACHN renal
CCRF-CEM leukemia = system: CCRF-CEM leukemia
SN12C renal = system: SN12C renal
HCC-2998 colon = system: HCC-2998 colon
SR leukemia = system: SR leukemia
OVCAR-4 ovarian = system: OVCAR-4 ovarian
HL-60(TB) leukemia = system: HL-60(TB) leukemia
LOX IMVI melanoma = system: LOX IMVI melanoma
PC-3 prostate = system: PC-3 prostate
RXF 393 renal = system: RXF 393 renal
U251 CNS = system: U251 CNS
NCI-H460 lung = system: NCI-H460 lung
A549 NSCLC = system: A549 NSCLC

For `CCOC(=O)n1cc(C2=C(c3cn(C)c4ccccc34)COC2=O)c2ccccc21`, the GI50 (HS 578T breast) was 116 nM, the TGI (HS 578T breast) was 21100 nM and the GI50 (SK-MEL-28 melanoma) was 1030 nM. The TGI (SK-MEL-28 melanoma) was over 100000 nM, the GI50 (T-47D breast) was 338 nM and the TGI (T-47D breast) was over 100000 nM. The GI50 (HCT-116 colon) was 51.5 nM, the TGI (HCT-116 colon) was 16800 nM and the GI50 (DU-145 prostate) was 391 nM. The TGI (DU-145 prostate) was over 58000 nM, the GI50 (OVCAR-5 ovarian) was 462 nM and the TGI (OVCAR-5 ovarian) was over 100000 nM. For the same compound, the GI50 (NCI-H522 lung) was 27.8 nM, the TGI (NCI-H522 lung) was 1020 nM and the GI50 (A498 renal) was 39.1 nM. It also gave a TGI (A498 renal) of 644 nM, a GI50 (K-562 leukemia) of 36.5 nM and a TGI (K-562 leukemia) of over 32200 nM. It also gave a GI50 (SNB-19 CNS) of 259 nM, a TGI (SNB-19 CNS) of over 63200 nM and a GI50 (CAKI-1 renal) of 49.2 nM. For the same compound, the TGI (CAKI-1 renal) was 18500 nM, the GI50 (MOLT-4 leukemia) was 380 nM and the TGI (MOLT-4 leukemia) was over 48400 nM. The GI50 (NCI-H226 lung) was 452 nM, the TGI (NCI-H226 lung) was over 39000 nM and the GI50 (UO-31 renal) was 78.1 nM. The TGI (UO-31 renal) was over 100000 nM, the GI50 (HCT-15 colon) was 38.2 nM and the TGI (HCT-15 colon) was over 63000 nM. The GI50 (MDA-MB-231 breast) was 347 nM, the TGI (MDA-MB-231 breast) was over 70500 nM and the GI50 (COLO 205 colon) was 241 nM. The TGI (COLO 205 colon) was 2410 nM, the GI50 (SK-OV-3 ovarian) was 1970 nM and the TGI (SK-OV-3 ovarian) was 56800 nM. The GI50 (UACC-62 melanoma) was 59.9 nM, the TGI (UACC-62 melanoma) was over 55600 nM and the GI50 (OVCAR-3 ovarian) was 39.1 nM. For the same compound, the TGI (OVCAR-3 ovarian) was 277 nM, the GI50 (BT-549 breast) was 145 nM and the TGI (BT-549 breast) was 11100 nM. It also gave a GI50 (MCF7 breast) of 32 nM, a TGI (MCF7 breast) of over 100000 nM and a GI50 (M14 melanoma) of 47.8 nM. It also gave a TGI (M14 melanoma) of over 100000 nM, a GI50 (OVCAR-8 ovarian) of 312 nM and a TGI (OVCAR-8 ovarian) of over 100000 nM. It also gave a GI50 (NCI/ADR-RES ovarian) of 53.1 nM, a GI50 (UACC-257 melanoma) of 3520 nM and a TGI (UACC-257 melanoma) of over 100000 nM. It also gave a GI50 (SF-539 CNS) of 119 nM, a TGI (SF-539 CNS) of 584 nM and a GI50 (786-0 renal) of 268 nM. The TGI (786-0 renal) was 15800 nM, the GI50 (HT29 colon) was 46.4 nM and the GI50 (MALME-3M melanoma) was 50.8 nM. It also gave a TGI (MALME-3M melanoma) of over 100000 nM, a GI50 (SF-295 CNS) of 46.4 nM and a TGI (SF-295 CNS) of 11000 nM. It also gave a GI50 (NCI-H23 lung) of 436 nM, a TGI (NCI-H23 lung) of 35500 nM and a GI50 (SF-268 CNS) of 1020 nM. The TGI (SF-268 CNS) was 62900 nM, the GI50 (SK-MEL-5 melanoma) was 35.9 nM and the TGI (SK-MEL-5 melanoma) was 393 nM. It also gave a GI50 (SK-MEL-2 melanoma) of 500 nM, a TGI (SK-MEL-2 melanoma) of over 86100 nM and a GI50 (RPMI-8226 leukemia) of 143 nM. It also gave a GI50 (SW-620 colon) of 72.4 nM, a TGI (SW-620 colon) of over 100000 nM and a GI50 (IGROV1 ovarian) of 56.4 nM. For the same compound, the TGI (IGROV1 ovarian) was over 45800 nM, the GI50 (EKVX NSCLC) was 177 nM and the TGI (EKVX NSCLC) was over 100000 nM. For the same compound, the GI50 (HOP-62 NSCLC) was 159 nM, the TGI (HOP-62 NSCLC) was 20400 nM and the GI50 (SNB-75 CNS) was 24.8 nM. The TGI (SNB-75 CNS) was 1220 nM, the GI50 (TK-10 renal) was 10000 nM and the TGI (TK-10 renal) was 31000 nM. The GI50 (KM12 colon) was 47.1 nM, the TGI (KM12 colon) was over 100000 nM and the GI50 (ACHN renal) was 79.5 nM. The TGI (ACHN renal) was over 100000 nM, the GI50 (CCRF-CEM leukemia) was 218 nM and the TGI (CCRF-CEM leukemia) was over 100000 nM. It also gave a GI50 (SN12C renal) of 306 nM, a TGI (SN12C renal) of over 100000 nM and a GI50 (HCC-2998 colon) of 167 nM. It also gave a TGI (HCC-2998 colon) of over 100000 nM, a GI50 (SR leukemia) of 44.9 nM and a TGI (SR leukemia) of 16400 nM. The GI50 (OVCAR-4 ovarian) was 69.2 nM, the TGI (OVCAR-4 ovarian) was over 100000 nM and the GI50 (HL-60(TB) leukemia) was 124 nM. For the same compound, the TGI (HL-60(TB) leukemia) was 511 nM, the GI50 (LOX IMVI melanoma) was 132 nM and the TGI (LOX IMVI melanoma) was over 96600 nM. The GI50 (PC-3 prostate) was 162 nM, the TGI (PC-3 prostate) was over 100000 nM and the GI50 (RXF 393 renal) was 35.6 nM. It also gave a TGI (RXF 393 renal) of 377 nM, a GI50 (U251 CNS) of 274 nM and a TGI (U251 CNS) of 22100 nM. The GI50 (NCI-H460 lung) was 371 nM, the TGI (NCI-H460 lung) was over 100000 nM and the GI50 (A549 NSCLC) was 166 nM. The TGI (A549 NSCLC) was over 100000 nM.

`CCCCCCCCCCCCC[C@H](O)C[C@H](O)[C@H](C)N` gave a GI50 (OVCAR-5 ovarian) of 1950 nM, a TGI (OVCAR-5 ovarian) of 3420 nM and a GI50 (A498 renal) of 6190 nM. It also gave a TGI (A498 renal) of 47100 nM, a GI50 (HCT-15 colon) of 1650 nM and a TGI (HCT-15 colon) of 3110 nM. It also gave a GI50 (SK-OV-3 ovarian) of 14600 nM, a TGI (SK-OV-3 ovarian) of 40900 nM and a GI50 (UACC-62 melanoma) of 1870 nM. It also gave a TGI (UACC-62 melanoma) of 3270 nM, a GI50 (OVCAR-8 ovarian) of 3490 nM and a TGI (OVCAR-8 ovarian) of over 100000 nM. The GI50 (ACHN renal) was 1860 nM, the TGI (ACHN renal) was 3300 nM and the GI50 (SN12C renal) was 1920 nM. It also gave a TGI (SN12C renal) of 3380 nM, a GI50 (OVCAR-4 ovarian) of 2250 nM and a TGI (OVCAR-4 ovarian) of 5520 nM. It also gave a GI50 (NCI-H460 lung) of 1630 nM and a TGI (NCI-H460 lung) of 3870 nM.
